Laboratory results from ChEMBL document CHEMBL5137130, “Highly N-Methylated Peptides from the Antarctic Sponge Inflatella coelosphaeroides Are Active against Plasmodium falciparum” (J Nat Prod, 2022).
Where a SMILES comes first, the peptide text is derived from it. [ ]: non-standard residue; d: D form. The star is where a group is joined. Phe(Nα-CONH2) = NC(=O)N[C@@H](Cc1ccccc1)C(=O)*; NMeI = CC[C@H](C)[C@H](NC)C(=O)O; X1 = CN(/C=C\c1c[nH]c2ccccc12)*; NMeL = CN[C@@H](CC(C)C)C(=O)O; NMeV = CN[C@H](C(=O)O)C(C)C; NMeA = CN[C@@H](C)C(=O)O; For = O=C*

Assays:
[1] = test system: Plasmodium falciparum; assay: Antimalarial activity against blood stage chloroquine-sensitive Plasmodium falciparum NF54 assessed as reduction in parasite growth incubated for 72 hrs by SYBR Green dye based fluorescence assay; format: functional, organism-based; conditions: NF54, 72 h
[2] = test system: Plasmodium falciparum; assay: Antimalarial activity against blood stage chloroquine-resistant Plasmodium falciparum Dd2 assessed as reduction in parasite growth incubated for 72 hrs by SYBR Green dye based fluorescence assay; format: functional, organism-based; conditions: Dd2, 72 h
[3] = test system: Plasmodium falciparum; assay: Antimalarial activity against blood stage chloroquine-sensitive Plasmodium falciparum 3D7 assessed as reduction in parasite growth incubated for 72 hrs by SYBR Green dye based fluorescence assay; format: functional, organism-based; conditions: 3D7, 72 h
[4] = Cytotoxicity against mouse J774 cells assessed as reduction in cell viability incubated for 68 hrs by CellTiter96 Aqueous One Solution Cell Proliferation Assay; format: toxicity, cell-based

Compound | IC50 [1] [µM] | IC50 [2] [µM] | IC50 [3] [µM] | IC50 at 68 h [4] [µM]
CC[C@H](C)[C@@H](C(N)=O)N(C)C(=O)[C@H](C(C)C)N(C)C(=O)[C@H](CC(C)C)N(C)C(=O)[C@H](Cc1ccccc1)N(C)C(=O)[C@H](Cc1ccccc1)NC=O | 2.61 | 1.72 | 2.1 | > 20
CC[C@H](C)[C@@H](C(=O)N(C)[C@H](C(=O)NC)[C@@H](C)CC)N(C)C(=O)[C@H](C(C)C)N(C)C(=O)[C@H](C)N(C)C(=O)[C@H](C(C)C)N(C)C(=O)[C@H](C(C)C)N(C)C(=O)[C@@H](NC=O)C(C)C (For-V[NMeV][NMeV][NMeA][NMeV][NMeI][NMeI]-NHMe) | > 10 | 4.37 | > 10 | > 20
CNC(=O)[C@H](C(C)C)N(C)C(=O)[C@H](C(C)C)N(C)C(=O)[C@H](C(C)C)N(C)C(=O)[C@H](C)N(C)C(=O)[C@H](C)N(C)C(=O)[C@H](CC(C)C)N(C)C(=O)[C@H](C(C)C)N(C)C(=O)[C@H](Cc1ccccc1)NC=O (For-F[NMeV][NMeL][NMeA][NMeA][NMeV][NMeV][NMeV]-NHMe) | 3.73 | 1.07 | 2.52 | > 20
CC[C@H](C)[C@@H](C(=O)N(C)/C=C\c1c[nH]c2ccccc12)N(C)C(=O)[C@H](C(C)C)N(C)C(=O)[C@H](C(C)C)N(C)C(=O)[C@H](CC(C)C)N(C)C(=O)[C@@H]1CCCN1C(=O)[C@H](Cc1ccccc1)NC(=O)[C@H](Cc1ccccc1)NC(C)=O (Ac-FFP[NMeL][NMeV][NMeV][NMeI]-X1) | 3.93 | 3.3 | 8.65 | > 20
CC[C@H](C)[C@@H](C(=O)N(C)[C@@H](C)C(=O)N(C)[C@H](C(N)=O)C(C)C)N(C)C(=O)[C@H]([C@@H](C)CC)N(C)C(=O)[C@H](C)N(C)C(=O)[C@H](C(C)C)N(C)C(=O)[C@H](C)N(C)C(=O)[C@@H](NC(C)=O)C(C)C (Ac-V[NMeA][NMeV][NMeA][NMeI][NMeI][NMeA][NMeV]-NH2) | > 10 | > 10 | > 10 | > 20
CC[C@H](C)[C@@H](C(=O)NC)N(C)C(=O)[C@H](C)N(C)C(=O)[C@H](C(C)C)N(C)C(=O)[C@H](C(C)C)N(C)C(=O)[C@H](C)N(C)C(=O)[C@H](C(C)C)N(C)C(=O)[C@H](C(C)C)N(C)C(=O)[C@H](C)N(C)C(=O)[C@H](C)NC(C)=O (Ac-A[NMeA][NMeV][NMeV][NMeA][NMeV][NMeV][NMeA][NMeI]-NHMe) | > 10 | > 10 | > 10 | > 20
CNC(=O)[C@H](C(C)C)N(C)C(=O)[C@H](C(C)C)N(C)C(=O)[C@H](C(C)C)N(C)C(=O)[C@H](C)N(C)C(=O)[C@H](C)N(C)C(=O)[C@H](CC(C)C)N(C)C(=O)[C@H](C(C)C)N(C)C(=O)[C@H](Cc1ccccc1)NC(N)=O ({Phe(Nα-CONH2)}-[NMeV][NMeL][NMeA][NMeA][NMeV][NMeV][NMeV]-NHMe) | 3.05 | 2.02 | > 10 | > 20
